Measurements: ChEMBL document CHEMBL3885881, “DrugMatrix”

Experiments:
Rattus norvegicus [1] = species on record: Rattus norvegicus; assay type: toxicity, organism-based, Sprague-Dawley; settings: in vivo, po, 0 mg/kg, 24 h, vehicle control, route oral GAVAGE, dose level Control, time 1 day, vehicle .5 % CMC
Description: DrugMatrix - Regimen: Single

Rattus norvegicus [2] = species on record: Rattus norvegicus; test: DrugMatrix - Regimen: Daily Repeat; assay type: toxicity, organism-based, Sprague-Dawley; design: regimen Daily Repeat, gender Male, age 6-8 weeks; settings: in vivo, po, 0 mg/kg, 72 h, route oral GAVAGE, dose level Control, time 3 day, vehicle .5 % CMC

ClC(Br)Br [DIBROMOCHLOROMETHANE]
ABSOLUTE EOSINOPHIL (Rattus norvegicus [1]; tissue Blood): 150 CELLS/uL | ABSOLUTE LYMPHOCYTE (Rattus norvegicus [1]; tissue Blood): 13279.83 CELLS/uL | ABSOLUTE MONOCYTE (Rattus norvegicus [1]; tissue Blood): 654.5 CELLS/uL | ABSOLUTE SEGMENTED NEUTROPHIL (Rattus norvegicus [1]; tissue Blood): 1565.67 CELLS/uL | BASOPHIL (Rattus norvegicus [1]; tissue Blood): 0% | EOSINOPHIL (Rattus norvegicus [1]; tissue Blood): 1% | ERYTHROCYTE COUNT (Rattus norvegicus [1]; tissue Blood): 5.36 x10E6/uL | HEMATOCRIT (Rattus norvegicus [1]; tissue Blood): 33.37% | HEMOGLOBIN (Rattus norvegicus [1]; tissue Blood): 12.52 G/DL | LEUKOCYTE COUNT (Rattus norvegicus [1]; tissue Blood): 15.65 x10E3/uL | LYMPHOCYTE (Rattus norvegicus [1]; tissue Blood): 84.83% | MEAN CORPUSCULAR HEMOGLOBIN (Rattus norvegicus [1]; tissue Blood): 23.4 pg | MEAN CORPUSCULAR HEMOGLOBIN CONCENTRATION (Rattus norvegicus [1]; tissue Blood): 37.52 G/DL | MEAN CORPUSCULAR VOLUME (Rattus norvegicus [1]; tissue Blood): 62.32 fL | MONOCYTE (Rattus norvegicus [1]; tissue Blood): 4.17% | NEUTROPHIL (Rattus norvegicus [1]; tissue Blood): 10% | NUCLEATED RED BLOOD CELLS (Rattus norvegicus [1]; tissue Blood): 0 /100WBC | PLATELET COUNT (Rattus norvegicus [1]; tissue Blood): 1020 x10E3/uL | ALANINE AMINOTRANSFERASE (Rattus norvegicus [1]; tissue Plasma): 49 u/L | ALBUMIN (Rattus norvegicus [1]; tissue Plasma): 4.47 G/DL | ALKALINE PHOSPHATASE (Rattus norvegicus [1]; tissue Plasma): 361.17 u/L | ASPARTATE AMINOTRANSFERASE (Rattus norvegicus [1]; tissue Plasma): 78.67 u/L | BLOOD UREA NITROGEN (Rattus norvegicus [1]; tissue Plasma): 13.17 mg/dL | CARBON DIOXIDE (Rattus norvegicus [1]; tissue Plasma): 29.67 mmol/L | CHLORIDE (Rattus norvegicus [1]; tissue Plasma): 100.83 MEQ/L | CHOLESTEROL (Rattus norvegicus [1]; tissue Plasma): 82.17 mg/dL | CREATININE (Rattus norvegicus [1]; tissue Plasma): 0.15 mg/dL | GLUCOSE (Rattus norvegicus [1]; tissue Plasma): 150.83 mg/dL | LACTATE DEHYDROGENASE (Rattus norvegicus [1]; tissue Plasma): 239.17 u/L | LIPASE (Rattus norvegicus [1]; tissue Plasma): 7.83 u/L | PHOSPHORUS (Rattus norvegicus [1]; tissue Plasma): 13.82 mg/dL | POTASSIUM (Rattus norvegicus [1]; tissue Plasma): 6.62 MEQ/L | SODIUM (Rattus norvegicus [1]; tissue Plasma): 144.25 MEQ/L | TOTAL BILIRUBIN (Rattus norvegicus [1]; tissue Plasma): 0.15 mg/dL | TOTAL PROTEIN (Rattus norvegicus [1]; tissue Plasma): 6.2 G/DL | URIC ACID (Rattus norvegicus [1]; tissue Plasma): 1.57 mg/dL | ABSOLUTE BASOPHIL (Rattus norvegicus [2]; tissue Blood): 0 CELLS/uL | ABSOLUTE EOSINOPHIL (Rattus norvegicus [2]; tissue Blood): 279.83 CELLS/uL | ABSOLUTE LYMPHOCYTE (Rattus norvegicus [2]; tissue Blood): 13152.5 CELLS/uL | ABSOLUTE MONOCYTE (Rattus norvegicus [2]; tissue Blood): 1013.83 CELLS/uL | ABSOLUTE SEGMENTED NEUTROPHIL (Rattus norvegicus [2]; tissue Blood): 2420.5 CELLS/uL | BASOPHIL (Rattus norvegicus [2]; tissue Blood): 0% | EOSINOPHIL (Rattus norvegicus [2]; tissue Blood): 1.67% | ERYTHROCYTE COUNT (Rattus norvegicus [2]; tissue Blood): 5.26 x10E6/uL | HEMATOCRIT (Rattus norvegicus [2]; tissue Blood): 32.22% | HEMOGLOBIN (Rattus norvegicus [2]; tissue Blood): 12.02 G/DL | LEUKOCYTE COUNT (Rattus norvegicus [2]; tissue Blood): 16.87 x10E3/uL | LYMPHOCYTE (Rattus norvegicus [2]; tissue Blood): 77.83% | MEAN CORPUSCULAR HEMOGLOBIN (Rattus norvegicus [2]; tissue Blood): 22.93 pg | MEAN CORPUSCULAR HEMOGLOBIN CONCENTRATION (Rattus norvegicus [2]; tissue Blood): 37.32 G/DL | MEAN CORPUSCULAR VOLUME (Rattus norvegicus [2]; tissue Blood): 61.4 fL | MONOCYTE (Rattus norvegicus [2]; tissue Blood): 6% | NEUTROPHIL (Rattus norvegicus [2]; tissue Blood): 14.5% | NUCLEATED RED BLOOD CELLS (Rattus norvegicus [2]; tissue Blood): 0 /100WBC | PLATELET COUNT (Rattus norvegicus [2]; tissue Blood): 1122.17 x10E3/uL | ALANINE AMINOTRANSFERASE (Rattus norvegicus [2]; tissue Plasma): 55.67 u/L | ALBUMIN (Rattus norvegicus [2]; tissue Plasma): 4.35 G/DL | ALKALINE PHOSPHATASE (Rattus norvegicus [2]; tissue Plasma): 362.67 u/L | ASPARTATE AMINOTRANSFERASE (Rattus norvegicus [2]; tissue Plasma): 96 u/L | BLOOD UREA NITROGEN (Rattus norvegicus [2]; tissue Plasma): 18 mg/dL | CARBON DIOXIDE (Rattus norvegicus [2]; tissue Plasma): 27.5 mmol/L | CHLORIDE (Rattus norvegicus [2]; tissue Plasma): 100.17 MEQ/L | CHOLESTEROL (Rattus norvegicus [2]; tissue Plasma): 74.5 mg/dL | CREATININE (Rattus norvegicus [2]; tissue Plasma): 0.17 mg/dL | GLUCOSE (Rattus norvegicus [2]; tissue Plasma): 141.67 mg/dL | LACTATE DEHYDROGENASE (Rattus norvegicus [2]; tissue Plasma): 682.5 u/L | LIPASE (Rattus norvegicus [2]; tissue Plasma): 10 u/L | PHOSPHORUS (Rattus norvegicus [2]; tissue Plasma): 11.5 mg/dL | POTASSIUM (Rattus norvegicus [2]; tissue Plasma): 6.41 MEQ/L | SODIUM (Rattus norvegicus [2]; tissue Plasma): 141.2 MEQ/L | TOTAL BILIRUBIN (Rattus norvegicus [2]; tissue Plasma): 0.18 mg/dL | TOTAL PROTEIN (Rattus norvegicus [2]; tissue Plasma): 5.88 G/DL | URIC ACID (Rattus norvegicus [2]; tissue Plasma): 1.4 mg/dL
